Assay results taken from patent US20190322676A1, “CERAMIDE GALACTOSYLTRANSFERASE INHIBITORS FOR THE TREATMENT OF DISEASE” (BioMarin Pharmaceutical Inc., priority 2016, published 2019).
Structures can show the parent of a compound that is named as a salt.

What follows are compounds tested against T1, human CGT (ceramide galactosyltransferase), CHO/CGT lysate (Homo sapiens, UniProt Q16880) (assay: CGT enzyme assay, RapidFire/MS/MS readout (Table 1 ranges with one asterisk *)). Details: RapidFire method (range with one asterisk *).
T1 construct: Full-length human CGT cDNA was cloned into the BamH1/Xho1 site of pcDNA3.1 (+); expressed in transfected cells; host or cells: Chinese hamster ovary (CHO) cells; lysate prepared with M-PER
T1 sequence (Q16880 21-541): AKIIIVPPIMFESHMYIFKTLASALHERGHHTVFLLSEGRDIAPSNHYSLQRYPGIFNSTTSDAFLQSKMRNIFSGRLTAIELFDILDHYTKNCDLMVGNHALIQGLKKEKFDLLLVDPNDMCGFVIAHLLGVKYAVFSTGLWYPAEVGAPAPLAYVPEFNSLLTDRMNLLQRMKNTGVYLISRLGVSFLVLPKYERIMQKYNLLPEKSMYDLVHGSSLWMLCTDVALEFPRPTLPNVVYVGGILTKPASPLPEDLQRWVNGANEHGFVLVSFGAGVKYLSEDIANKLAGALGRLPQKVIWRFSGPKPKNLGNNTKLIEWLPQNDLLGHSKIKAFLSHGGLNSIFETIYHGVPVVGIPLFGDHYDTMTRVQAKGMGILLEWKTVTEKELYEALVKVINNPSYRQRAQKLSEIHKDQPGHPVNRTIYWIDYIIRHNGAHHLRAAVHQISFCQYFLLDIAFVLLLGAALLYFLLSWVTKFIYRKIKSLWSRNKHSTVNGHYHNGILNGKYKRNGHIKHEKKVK
Type: biochemical
How it was run: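 Lysate (4 μg) of CHO cells transfected with full-length human CGT incubated 1 h at 37 °C with compound (0.001–50 μM) in pH 7.2 HEPES buffer with 10 μM C6-NBD-dihydro-ceramide, 17.5 μM UDP-galactose, Mg2+/Mn2+, CHAPS, BSA, 0.5% DMSO; ** set also contained 0.01% Tween 80. Product quantified by RapidFire/MS/MS, normalized to internal standard; IC50 from sigmoidal variable-slope fits.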
In the case of `CCCCOc1cccc(C(F)(F)[C@@H](NS(=O)(=O)c2ccc3cc(OC4CCCC4)ccc3c2)C(=O)N2C3CCC2CC(N)C3)c1` (stereo partly drawn) [Compound 90-2, N-((2S)-3-(3-amino-8-azabicyclo[3.2.1]octan-8-yl)-1-(3-butoxyphenyl)-1,1-difluoro-3-oxopropan-2-yl)-6-(cyclopentyloxy)naphthalene-2-sulfonamide trifluoroacetate], the IC50 is reported as 1 to 10 µM.
Compound `NC1CCN(C(=O)[C@@H](NS(=O)(=O)c2ccc(OCC3CCCCC3)cc2)C(F)(F)c2ccc(-c3ccc(Cl)s3)cc2)CC1` [Compound 117-1, (R)—N-(3-(4-aminopiperidin-1-yl)-1-(4-(5-chlorothiophen-2-yl)phenyl)-1,1-difluoro-3-oxopropan-2-yl)-4-(cyclohexylmethoxy)benzenesulfonamide] has an IC50 of 1 to 10 µM.
`NC1CC2CCC(C1)N2C(=O)[C@H](NS(=O)(=O)c1ccc(OCC2CCCCC2)cc1)C(F)(F)c1ccc(C(F)(F)F)cc1` (stereo partly drawn) [Compound 59-2, N-((2S)-3-(3-amino-8-azabicyclo[3.2.1]octan-8-yl)-1,1-difluoro-3-oxo-1-(4-(trifluoromethyl)phenyl)propan-2-yl)-4-(cyclohexylmethoxy) benzenesulfonamide] was tested, and the IC50 was 1 to 10 µM.
For `NC1CC2CCC(C1)N2C(=O)[C@@H](NC(=O)C(=O)c1ccc2cc(OC3CCCC3)ccc2c1)C(F)(F)c1ccc(-c2ccc(Cl)cc2)cc1` (stereo partly drawn) [Compound 133-1, N-((2R)-3-(3-amino-8-azabicyclo[3.2.1]octan-8-yl)-1-(4′-chloro-[1,1′-biphenyl]-4-yl)-1,1-difluoro-3-oxopropan-2-yl)-2-(6-(cyclopentyloxy)naphthalen-2-yl)-2-oxoacetamide trifluoroacetate], the IC50 was 1 to 10 µM.
For `NC1CCN(C(=O)[C@@H](NS(=O)(=O)c2ccc3cc(OC4CCCC4)ccc3c2)C(F)(F)c2ccc(C(F)(F)F)cc2)CC1` [Compound 71-1, (R)—N-(3-(4-aminopiperidin-1-yl)-1,1-difluoro-3-oxo-1-(4-(trifluoromethyl)phenyl)propan-2-yl)-6-(cyclopentyloxy)naphthalene-2-sulfonamide], the IC50 was < 1 µM.
For `NC1CCN(C(=O)[C@H](NS(=O)(=O)c2ccc(OCC3CCCCC3)cc2)C(F)(F)c2ccc(OC3CCCCC3)cc2)CC1` [Compound 103-2, (S)—N-(3-(4-aminopiperidin-1-yl)-1-(4-(cyclohexyloxy)phenyl)-1,1-difluoro-3-oxopropan-2-yl)-4-(cyclohexylmethoxy)benzenesulfonamide], the IC50 was 30 to 100 µM.
`NC1CCN(C(=O)[C@@H](NS(=O)(=O)c2ccc(OCC3CCCCC3)cc2)C(F)(F)c2ccc(Oc3ccccc3)cc2)CC1` [Compound 63-1, (R)—N-(3-(4-aminopiperidin-1-yl)-1,1-difluoro-3-oxo-1-(4-phenoxyphenyl)propan-2-yl)-4-(cyclohexylmethoxy)benzenesulfonamide trifluoroacetate] was tested, and the IC50 was 1 to 10 µM.
Work on `NC1CC2CCC(C1)N2C(=O)[C@H](NS(=O)(=O)c1ccc2cc(OC3CCC3)ccc2c1)C(F)(F)c1ccc(Br)cc1` (stereo partly drawn) [Compound 47-2, N-((2S)-3-(3-amino-8-azabicyclo[3.2.1]octan-8-yl)-1-(4-bromophenyl)-1,1-difluoro-3-oxopropan-2-yl)-6-cyclobutoxynaphthalene-2-sulfonamide] yielded an IC50 of 10 to 30 µM.
In the case of `NC1CCN(C(=O)[C@@H](NS(=O)(=O)c2ccc3cc(OC4CCCC4)ccc3c2)C(F)(F)c2ccc(-c3ccc(Cl)s3)cc2)CC1` [Compound 112-1, (R)—N-(3-(4-aminopiperidin-1-yl)-1-(4-(5-chlorothiophen-2-yl)phenyl)-1,1-difluoro-3-oxopropan-2-yl)-6-(cyclopentyloxy)naphthalene-2-sulfonamide trifluoroacetate], the IC50 is reported as < 1 µM.
`CCCCOc1ccc(C(F)(F)[C@@H](NS(=O)(=O)c2ccc3cc(OC4CCCC4)ccc3c2)C(=O)N2C3CCC2CC(N)C3)cc1` (stereo partly drawn) [Compound 82-2, N-((2S)-3-(3-amino-8-azabicyclo[3.2.1]octan-8-yl)-1-(4-butoxyphenyl)-1,1-difluoro-3-oxopropan-2-yl)-6-(cyclopentyloxy)naphthalene-2-sulfonamide trifluoroacetate] was tested, and the IC50 was 1 to 10 µM.
For `NC1CCN(C(=O)[C@@H](NS(=O)(=O)c2ccc3c(cnn3CC3CCCC3)c2)C(F)(F)c2ccc(Cl)cc2)CC1` [Compound 99-1, (R)—N-(3-(4-aminopiperidin-1-yl)-1-(4-chlorophenyl)-1,1-difluoro-3-oxopropan-2-yl)-1-(cyclopentylmethyl)-1H-indazole-5-sulfonamide], the IC50 was 1 to 10 µM.
With `NC1CC2CCC(C1)N2C(=O)[C@@H](NS(=O)(=O)c1ccc(OCC2CCCCC2)cc1)C(F)(F)c1ccc(C(F)(F)F)cc1` (stereo partly drawn) [Compound 59-1, N-((2R)-3-(3-amino-8-azabicyclo[3.2.1]octan-8-yl)-1,1-difluoro-3-oxo-1-(4-(trifluoromethyl)phenyl)propan-2-yl)-4-(cyclohexylmethoxy)benzenesulfonamide] the IC50 was < 1 µM.
`COc1cc(C(F)(F)[C@H](NS(=O)(=O)c2ccc(OCC3CCCCC3)cc2)C(=O)N2CCC(N)CC2)ccc1Cl` [Compound 129-1, (R)—N-(3-(4-aminopiperidin-1-yl)-1-(4-chloro-3-methoxyphenyl)-1,1-difluoro-3-oxopropan-2-yl)-4-(cyclohexylmethoxy)benzenesulfonamide] gave an IC50 of 1 to 10 µM.
`NC1CC2CCC(C1)N2C(=O)[C@@H](NS(=O)(=O)c1ccc(OCC2CCCC2)cc1)C(F)(F)c1ccc(C(F)(F)F)cc1` (stereo partly drawn) [Compound 60-1, N-((2R)-3-(3-amino-8-azabicyclo[3.2.1]octan-8-yl)-1,1-difluoro-3-oxo-1-(4-(trifluoromethyl)phenyl)propan-2-yl)-4-(cyclopentylmethoxy) benzenesulfonamide] showed an IC50 of 1 to 10 µM.
`CCCCOc1cc(C(F)(F)[C@@H](NS(=O)(=O)c2ccc(OCC3CCCCC3)cc2)C(=O)N2CCC(N)CC2)ccc1Cl` [Compound 127-2, (S)—N-(3-(4-aminopiperidin-1-yl)-1-(3-butoxy-4-chlorophenyl)-1,1-difluoro-3-oxopropan-2-yl)-4-(cyclohexylmethoxy)benzenesulfonamide] showed an IC50 of 1 to 10 µM.
For `CCCCOc1ccc(C(F)(F)[C@@H](C(=O)N2C3CCC2CC(N)C3)N(C)S(=O)(=O)c2ccc(OCC3CCCCC3)cc2)cc1` (stereo partly drawn) [Compound 79-1, N-((2R)-3-(3-amino-8-azabicyclo[3.2.1]octan-8-yl)-1-(4-butoxyphenyl)-1,1-difluoro-3-oxopropan-2-yl)-4-(cyclohexylmethoxy)-N-methylbenzenesulfonamide], the IC50 was 1 to 10 µM.
`CN([C@@H](C(=O)N1C2CCC1CC(N)C2)C(F)(F)c1ccc(Br)cc1)S(=O)(=O)c1ccc2c(cnn2CC2CCCC2)c1` (stereo partly drawn) [Compound 75-2, N-((2S)-3-(3-amino-8-azabicyclo[3.2.1]octan-8-yl)-1-(4-bromophenyl)-1,1-difluoro-3-oxopropan-2-yl)-1-(cyclopentylmethyl)-N-methyl-1H-indazole-5-sulfonamide] was tested, and the IC50 was 30 to 100 µM.
With `NC1CC2CCC(C1)N2C(=O)[C@H](NC(=O)[C@@H](O)c1ccc2cc(OC3CCCC3)ccc2c1)C(F)(F)c1ccc(Br)cc1` (stereo partly drawn) [Compound 41-6, (2S)—N-((2S)-3-(3-amino-8-azabicyclo[3.2.1]octan-8-yl)-1-(4-bromophenyl)-1,1-difluoro-3-oxopropan-2-yl)-2-(6-(cyclopentyloxy)naphthalen-2-yl)-2-hydroxyacetamide trifluoroacetate] the IC50 was 30 to 100 µM.
In the case of `NC1CCN(C(=O)[C@@H](NS(=O)(=O)c2ccc(OCC3CCCCC3)cc2)C(F)(F)c2ccc(OC3CCCCC3)cc2)CC1` [Compound 103-1, (R)—N-(3-(4-aminopiperidin-1-yl)-1-(4-(cyclohexyloxy)phenyl)-1,1-difluoro-3-oxopropan-2-yl)-4-(cyclohexylmethoxy)benzenesulfonamide], the IC50 is reported as < 1 µM.
For `NC1CC2CCC(C1)N2C(=O)[C@@H](NS(=O)(=O)c1ccc2cc(OC3CCCC3)ccc2c1)C(F)(F)c1ccc(Cl)cc1` (stereo partly drawn) [Compound 28-1, N-((2R)-3-(3-amino-8-azabicyclo[3.2.1]octan-8-yl)-1-(4-chlorophenyl)-1,1-difluoro-3-oxopropan-2-yl)-6-(cyclopentyloxy)naphthalene-2-sulfonamide trifluoroacetate], the IC50 was < 1 µM.
With `CN([C@@H](C(=O)N1C2CCC1CC(N)C2)C(F)(F)c1ccc(C(F)(F)F)cc1)S(=O)(=O)c1ccc2cc(OC3CCCC3)ccc2c1` (stereo partly drawn) [Compound 73-2, N-((2S)-3-(3-amino-8-azabicyclo[3.2.1]octan-8-yl)-1,1-difluoro-3-oxo-1-(4-(trifluoromethyl)phenyl)propan-2-yl)-6-(cyclopentyloxy)-N-methylnaphthalene-2-sulfonamide] the IC50 was 1 to 10 µM.
`COc1cc(C(F)(F)[C@@H](NS(=O)(=O)c2ccc(OCC3CCCCC3)cc2)C(=O)N2CCC(N)CC2)ccc1Cl` [Compound 129-2, (S)—N-(3-(4-aminopiperidin-1-yl)-1-(4-chloro-3-methoxyphenyl)-1,1-difluoro-3-oxopropan-2-yl)-4-(cyclohexylmethoxy)benzenesulfonamide] gave an IC50 of 10 to 30 µM.
